Laboratory results from patent publication US8557833B2, “Aminopyrimidines useful as kinase inhibitors” (priority 2005, dated 2013).
Where two headings read alike, the source gives them in different places.

How the values were obtained:
[1] = Microsomal stability assay; assay type: in vitro ADME; settings: 5 μM compound, 1 mg/mL liver microsome protein, 37° C., species not given
Protocol: Microsomal stability was monitored by generation of depletion-time profiles in microsomes from a range of species (male CD-1 mouse, male Sprague-Dawley rat, male Beagle dog, male Cynomolgus monkey and pooled mixed gender human). Compound spiking solutions were made up by diluting down the compound stock solution in DMSO (typically 10 mM) to give a solution in acetonitrile (0.5 mM). […].
The reaction was initiated by the addition (250 μL) of the pre-incubated RGS to the pre-incubated microsome/VRT/PB mixture (pre-incubation in both instances was for 10 minutes at 37° C.). Samples were incubated within Eppendorf vials (1.5 ml) on a heater shaker (DPC Micromix 5 (settings; form 20, amplitude 4) modified to be heated, to 37° C., by two plate heaters fixed to the deck and controlled by a Packard Manual Heater) attached to a Multiprobe II HT Ex automated liquid handler. The liquid handler was programmed (WinPREP software) to sample the microsomal incubation mixture after 0, 2, 10, 30 and 60 minutes of incubation and transfer an aliquot (100 μL) to a stop block (96-well block) containing 100 μL of chilled methanol. The % organic in the stop mixture was optimized for analysis by addition of appropriate volumes of aqueous/organic (typically 100 μl of 50:50 methanol:water).
Prior to analysis the stop block was placed on a shaker (DPC Micromix 5; 10 min, form 20, amplitude 5) to precipitate out proteins. The block was then centrifuged (Jouan GR412; 2000 rpm, 15 min, 4° C.). A sample aliquot (200 μL) was then transferred to an analysis block and the block was centrifuged again (Jouan GR412; 2000 rpm, 5 min, 4° C.) prior to being sent for analysis. Depletion profiles were determined by monitoring the disappearance of VRT by liquid chromatography-tandem mass spectrometry (LC-MS/MS). Samples were injected (20 μL; Agilent 1100 liquid chromatographic system equipped with autosampler) onto an analytical column. Mobile phase consisted of Water+0.05% (v/v) formic acid (A) and methanol+0.05% (v/v) formic acid (B).
Running a gradient method optimized for the compound of interest carried out the compound elution from analytical column. The total run time was 6 minutes with a flow rate of 0.35 mL/min. The entire column effluent entered the electrospray ionization source (positive mode) of a Micromass Quattro LC tandem mass spectrometer between 0.5 and 5.9 min of the run. The mass spectrometry was optimized for the compound of interest. All incubations were conducted in duplicate and results were expressed as % parent remaining at either 30 minutes or 60 minutes relative to 0 minutes sample.

FLT-3 = biological target: T1, FLT-3 (Homo sapiens, UniProt P36888); experiment: FLT-3 inhibition assay, radiometric filter-binding; assay type: biochemical
T1 sequence (P36888 27-993): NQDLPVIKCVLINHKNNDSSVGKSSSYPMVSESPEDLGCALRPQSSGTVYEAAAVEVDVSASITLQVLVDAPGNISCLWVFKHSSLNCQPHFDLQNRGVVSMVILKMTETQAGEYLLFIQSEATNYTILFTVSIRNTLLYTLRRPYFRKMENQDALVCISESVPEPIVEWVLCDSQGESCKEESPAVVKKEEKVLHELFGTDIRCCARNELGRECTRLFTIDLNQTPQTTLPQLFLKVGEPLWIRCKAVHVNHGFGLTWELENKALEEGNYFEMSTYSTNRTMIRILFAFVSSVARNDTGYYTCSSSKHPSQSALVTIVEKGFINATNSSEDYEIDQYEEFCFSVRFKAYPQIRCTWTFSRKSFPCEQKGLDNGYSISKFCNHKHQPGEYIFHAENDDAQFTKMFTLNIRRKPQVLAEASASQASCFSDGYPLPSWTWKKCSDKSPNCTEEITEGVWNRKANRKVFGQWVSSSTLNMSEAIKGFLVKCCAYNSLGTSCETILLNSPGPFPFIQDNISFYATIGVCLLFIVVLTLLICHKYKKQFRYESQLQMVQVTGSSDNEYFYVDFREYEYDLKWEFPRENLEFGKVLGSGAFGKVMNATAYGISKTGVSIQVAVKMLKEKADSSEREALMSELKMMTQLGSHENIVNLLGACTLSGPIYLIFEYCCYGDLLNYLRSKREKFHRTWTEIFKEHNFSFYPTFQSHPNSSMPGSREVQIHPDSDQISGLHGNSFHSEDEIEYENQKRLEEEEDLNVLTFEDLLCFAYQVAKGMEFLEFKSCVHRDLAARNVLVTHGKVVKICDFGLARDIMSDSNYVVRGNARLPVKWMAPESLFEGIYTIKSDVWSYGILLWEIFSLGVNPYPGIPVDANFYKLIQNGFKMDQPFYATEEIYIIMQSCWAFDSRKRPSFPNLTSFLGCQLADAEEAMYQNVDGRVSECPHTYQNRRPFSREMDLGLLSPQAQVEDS
Protocol: This assay monitors the 33P incorporation into a substrate poly(Glu, Tyr) 4:1 (pE4Y). […] Final substrate concentrations in the assay were 90 μM ATP and 0.5 mg/ml pE4Y (both from Sigma Chemicals, St Louis, Mo.). […] Reactions were carried out at room temperature.
Two assay solutions were prepared. Solution 1 contains 100 mM HEPES (pH 7.5), 10 mM MgCl2, 25 mM NaCl, 1 mg/ml pE4Y and […] (containing 0.3 mCi of [γ-33^P]ATP for each reaction). Solution 2 contains 100 mM HEPES (pH 7.5), 10 mM MgCl2, 25 mM NaCl, 2 mM DTT, 0.02% BSA and 3 nM FLT-3. The assay was run on a 96 well plate by mixing 50 μl each of Solution 1 and […] of the compounds of the present invention. The reaction was initiated with Solution 2. […] All of the reaction volume was then transferred to a filter plate and washed with 5% TCA by a Harvester 9600 from TOMTEC (Hamden, Conn.). The amount of ^33P incorporation into pE4y was analyzed by a Packard Top Count Microplate Scintillation Counter (Meriden, Conn.). The data was fitted using Prism software to get an IC50 or Ki.

[2] = 90 μM ATP, 0.5 mg/ml pE4Y, room temperature, read-out: FLT-3 Ki

Row | SMILES | Microsomal Stability (% remaining after 30 min.) [1] | Microsomal Stability (% remaining after 60 min.) [1] | Ki (FLT-3; [2]) | Ki (FLT-3)
1 | Cc1cc(Nc2cc(N3CCC3)nc(Sc3ccc(NC(=O)c4ccccc4Cl)cc3)n2)[nH]n1 [Compound I-1, N-{4-[4-Azetidin-1-yl-6-(5-methyl-2H-pyrazol-3-ylamino)-pyrimidin-2-ylsulfanyl]-phenyl}-2-chloro-benzamide] | 96% | 79% | 0.1 µM | –
2 | Cc1cc(Nc2cc(N3CCC3)nc(Sc3ccc(NC(=O)c4c(F)cccc4F)cc3)n2)[nH]n1 [Compound I-2, N-{4-[4-Azetidin-1-yl-6-(5-methyl-2H-pyrazol-3-ylamino)-pyrimidin-2-ylsulfanyl]-phenyl}-2,6-Difluoro-benzamide] | 107% | 77% | 0.18 µM | –
3 | Cc1cc(Nc2cc(N3CCC3)nc(Sc3ccc(NC(=O)c4ccccc4F)cc3)n2)[nH]n1 [Compound I-3] | 51% | 66% | 0.22 µM | –
4 | Cc1cccc(C(=O)Nc2ccc(Sc3nc(Nc4cc(C)[nH]n4)cc(N4CCC4)n3)cc2)c1 [Compound I-4] | 76% | – | – | 0.33 µM
5 | Cc1cc(Nc2cc(N3CCC3)nc(Sc3ccc(NC(=O)c4ccccc4C)cc3)n2)[nH]n1 [Compound I-5] | 98% | 65% | 0.07 µM | –
6 | COc1ccccc1C(=O)Nc1ccc(Sc2nc(Nc3cc(C)[nH]n3)cc(N3CCC3)n2)cc1 [Compound I-6] | 80% | – | – | 0.12 µM
7 | Cc1cc(Nc2cc(N3CCC3)nc(Sc3ccc(NC(=O)c4ccccc4OC(F)(F)F)cc3)n2)[nH]n1 [Compound I-8] | 100% | – | – | 0.17 µM
8 | Cc1cc(Nc2cc(N3CCC3)nc(Sc3ccc(NC(=O)c4c(Cl)cccc4Cl)cc3)n2)n[nH]1 [Compound I-11] | – | 69% | – | 0.11 µM
9 | Cc1cc(Nc2cc(N3CCC3)nc(Sc3ccc(NC(=O)c4cccc(Cl)c4)cc3)n2)n[nH]1 [Compound I-12] | 94% | – | – | 0.54 µM
10 | Cc1cc(Nc2cc(N3CCC3)nc(Sc3ccc(NC(=O)c4cccc(C(F)(F)F)c4F)cc3)n2)n[nH]1 [Compound I-13] | 85% | 74% | – | 0.35 µM
11 | Cc1cc(Nc2cc(N3CCC3)nc(Sc3ccc(NC(=O)c4ccccc4C(F)(F)F)cc3)n2)[nH]n1 [Compound I-14] | 103% | 78% | 0.17 µM | –
12 | Cc1cc(Nc2cc(N3CCC3)nc(Sc3ccc(NC(=O)c4cccc(Cl)c4F)cc3)n2)n[nH]1 [Compound I-15] | 73% | 84% | – | 0.16 µM
13 | O=C(Nc1ccc(Sc2nc(Nc3cc(C4CC4)[nH]n3)cc(N3CCC3)n2)cc1)c1ccccc1Cl [Compound I-17] | 93% | – | – | 0.1 µM
14 | Cc1cc(Nc2cc(N3CCC3)nc(Sc3ccc(NC(=O)c4ccccc4C(F)F)cc3)n2)[nH]n1 [Compound I-19] | 109% | 91% | 0.16 µM | –
15 | Cc1cc(Nc2cc(N3CCC3)nc(Sc3ccc(NC(=O)c4cccc(C)c4Cl)cc3)n2)n[nH]1 [Compound I-20] | 53% | – | – | 0.24 µM
16 | Cc1cc(Nc2cc(N3CCC3)nc(Sc3ccc(NC(=O)c4cc(Cl)ccc4Cl)cc3)n2)n[nH]1 [Compound I-21] | 86% | – | – | 0.55 µM
17 | CCc1cccc(C(=O)Nc2ccc(Sc3nc(Nc4cc(C)[nH]n4)cc(N4CCC4)n3)cc2)c1Cl [Compound I-22] | 1% | 46% | – | 0.19 µM
